Laboratory results as given in patent US10280163B2 (BeiGene, Ltd., priority 2015, dated 2019).

Experiments:
[1] = target: T1, Recombinant IDO1 (Homo sapiens, UniProt P14902); experiment: IDO1 enzymatic assay; format: biochemical; settings: Table 1, 5-substituted imidazo[1,5-a]pyridines; 50 nM IDO1, 1.3 mM D-tryptophan; read-out: Enzyme IC50 (nM) IDO1
T1 construct: His tag (N); made in house; host or cells: E. coli
Method in brief: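 N-terminally His-tagged enzyme from E. coli (50 nM) was incubated with compound, 1.3 mM D-tryptophan, 5 mM ascorbate, 6.25 μM methylene blue and 0.4 mg/mL catalase in 50 mM potassium phosphate pH 7.5, 0.1% BSA for 1.5 h at 24° C. N′-formylkynurenine formation was followed at 321 nm for 1 h; IC50 from rate slopes.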

[2] = target: T2, Recombinant TDO (Homo sapiens, UniProt P48775); experiment: TDO enzymatic assay; format: biochemical; settings: Table 1, 5-substituted imidazo[1,5-a]pyridines; 100 nM TDO, 0.5 mM L-tryptophan; read-out: Enzyme IC50 (nM) TDO
T2 construct: His tag (C); made in house; host or cells: E. coli
T2 sequence (P48775 whole entry): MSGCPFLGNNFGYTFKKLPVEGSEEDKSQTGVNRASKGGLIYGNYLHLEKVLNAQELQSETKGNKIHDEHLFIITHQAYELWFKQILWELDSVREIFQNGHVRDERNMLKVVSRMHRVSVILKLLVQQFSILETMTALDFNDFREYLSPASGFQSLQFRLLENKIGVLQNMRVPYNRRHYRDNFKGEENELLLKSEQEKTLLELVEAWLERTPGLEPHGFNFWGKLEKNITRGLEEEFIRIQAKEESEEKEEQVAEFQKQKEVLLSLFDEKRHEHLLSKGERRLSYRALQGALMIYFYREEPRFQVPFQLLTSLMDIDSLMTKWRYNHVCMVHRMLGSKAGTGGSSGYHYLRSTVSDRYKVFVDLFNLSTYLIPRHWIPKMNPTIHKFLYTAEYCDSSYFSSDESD
Method: Recombinant TDO was overexpressed and purified from E. coli cells with a C-terminal His tag. TDO enzymatic assay was performed using the same methodology as IDO1 enzymatic assay except that 100 nM TDO and 0.5 mM L-tryptophan (Km concentration) were used in the TDO assay.

[3] = target: T3, cellular IDO1 in HeLa cells (Homo sapiens, UniProt P14902); experiment: HeLa cell-based IDO1 Kyn (kynurenine) production assay; settings: Table 1, 5-substituted imidazo[1,5-a]pyridines, IFN-γ 100 ng/mL, 48 hours
T3 construct: endogenous in cells; host or cells: HeLa cells (American Type Tissue Culture Collection), induced with human recombinant IFN-γ
T3 sequence (P14902 whole entry): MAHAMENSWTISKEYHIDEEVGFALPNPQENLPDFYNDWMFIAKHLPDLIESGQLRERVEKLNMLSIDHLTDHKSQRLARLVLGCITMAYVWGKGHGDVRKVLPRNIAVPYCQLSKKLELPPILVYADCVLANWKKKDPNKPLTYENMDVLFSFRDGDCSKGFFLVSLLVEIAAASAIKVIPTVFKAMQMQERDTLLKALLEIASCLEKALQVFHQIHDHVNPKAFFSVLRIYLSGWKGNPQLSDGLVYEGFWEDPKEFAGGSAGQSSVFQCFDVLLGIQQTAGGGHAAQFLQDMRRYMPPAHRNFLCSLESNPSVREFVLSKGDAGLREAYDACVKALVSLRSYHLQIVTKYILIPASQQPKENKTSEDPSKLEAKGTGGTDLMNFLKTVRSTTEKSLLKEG
Method in brief: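 IFN-γ-induced HeLa cells (100 ng/mL) in phenol red-free DMEM with 0.4 mM L-Trp, compounds added together with IFN-γ, 48 h at 37 °C. Supernatant Kyn read at 480 nm after TCA precipitation and 4-(dimethylamino)benzaldehyde reaction. IC50 from four-parameter logistic fit.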

T1 sequence (P14902 whole entry): as above

SMILES | IC50 [1] | IC50 [2] | EC50 [3]
Cc1ccc2cncn2c1C(O)C1CCCCC1 (stereo not drawn) [Example A122, cyclohexyl(6-methylimidazo[1,5-a]pyridin-5-yl)methanol] | 28 nM | 430 nM | 268 nM
C#Cc1ccc2cncn2c1C(O)C1CCCCC1 (stereo not drawn) [Example A123, cyclohexyl(6-ethynylimidazo[1,5-a]pyridin-5-yl)methanol] | 19 nM | 7900 nM | 556 nM
OC(CC1CCCCC1)c1c(I)ccc2cncn12 (stereo not drawn) [Example A124, 2-cyclohexyl-1-(6-iodoimidazo[1,5-a]pyridin-5-yl)ethan-1-ol] | 19 nM | 8700 nM | 275 nM
OC(c1c(I)ccc2cncn12)C1CCCCC1 (stereo not drawn) [Example A125, cyclohexyl(6-iodoimidazo[1,5-a]pyridin-5-yl)methanol] | 31 nM | 5600 nM | 205 nM
OC(c1c(C(F)(F)F)ccc2cncn12)C1CCCCC1 (stereo not drawn) [Example A126, cyclohexyl(6-(trifluoromethyl)imidazo[1,5-a]pyridine-5-yl)methanol] | 65 nM | 3100 nM | 291 nM
OC(CC1CCCCC1)c1c(C(F)(F)F)ccc2cncn12 (stereo not drawn) [Example A127, 2-cyclohexyl-1-(6-(trifluoromethyl)imidazo[1,5-a]pyridine-5-yl)ethan-1-ol] | 44 nM | 3500 nM | 165 nM
OC(CCC1CCCCC1)c1c(Cl)ccc2cncn12 (stereo not drawn) [Example A128, 1-(6-chloroimidazo[1,5-a]pyridin-5-yl)-3-cyclohexylpropan-1-ol] | 46 nM | 1100 nM | 2160 nM
OC(c1c(C2CC2)ccc2cncn12)C1CCCCC1 (stereo not drawn) [Example A129, cyclohexyl(6-cyclopropylimidazo[1,5-a]pyridin-5-yl)methanol] | 30 nM | 4700 nM | 69.5 nM

Other lines, results leading:

IC50 [1] | IC50 [2] | EC50 [3] | SMILES
850 nM | 1700 nM | 9150 nM | OC(c1c(-c2ccccc2)ccc2cncn12)C1CCCCC1 (stereo not drawn) [Example A130, cyclohexyl(6-phenylimidazo[1,5-a]pyridin-5-yl)methanol]
28 nM | 4100 nM | 939 nM | COc1ccc2cncn2c1C(O)C1CCCCC1 (stereo not drawn) [Example A131, cyclohexyl(6-methoxyimidazo[1,5-a]pyridin-5-yl)methanol]
58 nM | 36000 nM | 2040 nM | OC(c1c(C(F)(F)F)ccc2cncn12)C1CCCC1 (stereo not drawn) [Example A133, cyclopentyl(6-(trifluoromethyl)imidazo[1,5-a]pyridin-5-yl)methanol]
59 nM | 26000 nM | 8610 nM | OC(c1c(I)ccc2cncn12)C1CC1 (stereo not drawn) [Example A134, cyclopropyl(6-iodoimidazo[1,5-a]pyridin-5-yl)methanol]
39 nM | 2700 nM | 54 nM | CC(C)c1ccc2cncn2c1C(O)C1CCCCC1 (stereo not drawn) [Example A135, cyclohexyl(6-isopropylimidazo[1,5-a]pyridin-5-yl)methanol]
30 nM | 3300 nM | 1610 nM | C=C(C)c1ccc2cncn2c1C(O)C1CCCCC1 (stereo not drawn) [Example A136, cyclohexyl(6-(prop-1en-2-yl)imidazo[1,5-a]pyridin-5-yl)methanol]
25 nM | 6600 nM | 418 nM | OC(c1c(C2CC2)ccc2cncn12)C1CCCC1 (stereo not drawn) [Example A138, cyclopentyl(6-cyclopropylimidazo[1,5-a]pyridin-5-yl)methanol]
35 nM | 2400 nM | 435 nM | OC(CC1CCCCC1)c1c(C2CC2)ccc2cncn12 (stereo not drawn) [Example A139]
10000 nM | 17000 nM | 7810 nM | Cc1noc(C)c1-c1ccc2cncn2c1C(O)C1CCCCC1 (stereo not drawn) [Example A140, cyclohexyl(6-(3,5-dimethylisoxazol-4-yl)imidazo[1,5-a]pyridin-5-yl)methanol]
